Measurements published in patent US4704393A, “1-substituted 5-fluorouracil useful for inhibiting the aggregation of platelets” (Terumo Kabushiki Kaisha, priority 1983, dated 1987).
Like-named read-outs stand apart in the source and are kept apart here.

Columns and labels:
P388 cells = experiment: Chemotherapeutic function: life elongation ratio (ILS %) of mice intra-abdominally transplanted with P388 cells; conditions: for toxicity compared with 5-FU in P388-bearing mice: 50 mg/kg/day (Example 1 compound), 70 mg/kg/day (Examples 2 and 3 compounds); for chemotherapeutic function compared with 5-FU: P388 mice, Tables 1 and 2; for ILS (%) / Incremental Life Support ILS (%): intra-abdominal, once daily; for Incremental Life Support ILS (%): five consecutive days
From the text: To CDFl mice (males five weeks old), 1×10^6 P388 cells/mouse were intra-abdominally transplanted.
By following the procedure described above, each suspension of 0.5% of 1-(5,8,11,14,17-eicosapentaenoyloxy-meyhyl)-5-fluorouracil of Example 2 and 0.5% of 1-(4,7,10,13,16,19-docosahexenoyloxymethyl)-5-fluorouracil of Example 3 in carboxymethyl celloulose was intra-abdominally administered once daily to other mice of the same description to test for life elongation ratio.

[1] = system: platelet aggregation induced by collagen; experiment: Platelet aggregation inhibition in rabbit PRP, induced by collagen; type: cell-based; conditions: Oryctolagus cuniculus, collagen 25 μg/ml
From the text: (§1) With a syringe containing an aqueous 3.8% sodium citrate solution (one volume), blood (nine volumes) was collected from a rabbit through the carotid artery. For this blood, blood plasma abounding with blood platelets (PRP: 500,000/μ1) was obtained by centrifugal separation. The compound of the present invention was used on the PRP, with arachidonic acid or collagen as a coagulation inducer, to test for plastocytic coagulation depressing function.
as §1, with “From” for “For”, “400,000/μ)” for “500,000/μ1)”, “an aggregation” for “a coagulation”, “platelet aggregation inhibiting” for “plastocytic coagulation depressing”

[2] = system: platelet aggregation induced by the arachidonic acid; experiment: Platelet aggregation inhibition in rabbit PRP, induced by arachidonic acid; type: cell-based; conditions: Oryctolagus cuniculus
From the text: as §1
as §1, with “From” for “For”, “400,000/μ)” for “500,000/μ1)”, “an aggregation” for “a coagulation”, “platelet aggregation inhibiting” for “plastocytic coagulation depressing”

in vivo = conditions: mouse, ip
From the text: To ICR mice (male, seven weeks old), 1-(9,12,15-octadecatrienoyloxymethyl)-5-fluorouracil, 1-(5,8,11,14,17-eicosapentaenoyloxymethyl)-5-fluorouracil, and 1-(4,7,10,13,16,19-docosahexenoyloxymethyl)-5-fluorouracil were intra-abdominally administered to test for acute toxicity.

[3] = arachidonic acid 80 μM, rabbit PRP 400,000/μ, read-out: 50% depression concentration (IC50) on platelet aggregation

| Compound | toxicity compared with 5-FU in P388-bearing mice (P388 cells) | chemotherapeutic function compared with 5-FU (P388 cells) | ILS (%) (P388 cells; Table 2, 3 mg/kg/day) | ILS (%) (P388 cells; Table 2, 10 mg/kg/day) | ILS (%) (P388 cells; Table 2, 30 mg/kg/day) | ILS (%) (P388 cells; Table 2, 70 mg/kg/day) | ILS (%) (P388 cells; Table 2, 100 mg/kg/day) | IC50 ([1]; rabbit PRP 400,000/μ) [µM] | IC50 [2, 3] [µM] | LD50 (in vivo) [mg/kg] | Incremental Life Support ILS (%) (P388 cells; Table 1, 5 mg/kg/day) | Incremental Life Support ILS (%) (P388 cells; Table 1, 10 mg/kg/day) | Incremental Life Support ILS (%) (P388 cells; Table 1, 20 mg/kg/day) | Incremental Life Support ILS (%) (P388 cells; Table 1, 30 mg/kg/day) | IC50 ([1]; rabbit PRP 500,000/μl) [µM] | other results |
| --- | --- | --- | --- | --- | --- | --- | --- | --- | --- | --- | --- | --- | --- | --- | --- | --- |
| CCC=CCC=CCC=CCC=CCC=CCC=CCCC(=O)OCn1cc(F)c(=O)[nH]c1=O [1-(4,7,10,13,16,19-docosahexenoyloxymethyl)-5-fluorouracil] | less toxic than 5-FU | equal to or better than the function of 5-FU | 17 | 34 | 47 | 30 | 22 | 90 | 54 | > 500 | – | – | – | – | – | – |
| O=c1[nH]cc(F)c(=O)[nH]1 [Example 5-FU, 5-fluorouracil] | – | – | 20 | 38 | -8 | – | – | ≥ 1000 | > 1000 | – | 35 | 47 | 62 | -17 | 530 | days of survival compared with control group (P388 cells; 30 mg/kg/day): smaller numbers of days of survival on the mice treatd than the mice of the control group; inhibition at 1000 µM ([2]; arachidonic acid 70 μM, rabbit PRP 500,000/μl, at 1×10^-3 M): 4%; LD50 (in vivo; in vivo): 235 mg/kg |
| CC/C=C\C/C=C\C/C=C\CCCCCCCC(=O)OCn1cc(F)c(=O)[nH]c1=O [1-(9,12,15-octadecatrienoyloxymethyl)-5-fluorouracil] | less toxic than 5-FU | equal to or better than the function of 5-FU | – | – | – | – | – | – | – | > 500 | 23 | 52 | 71 | 64 | 34 | Incremental Life Support ILS (%) (P388 cells; Table 1, 50 mg/kg/day): 47%; Incremental Life Support ILS (%) (P388 cells; Table 1, 100 mg/kg/day): 7%; IC50 ([2]; arachidonic acid 70 μM, rabbit PRP 500,000/μl, read-out: 50% inhibition concentration (IC50) on platelet aggregation): 640 µM |
| CCC=CCC=CCC=CCC=CCC=CCCCC(=O)OCn1cc(F)c(=O)[nH]c1=O [1-(5,8,11,14,17-eicosapentaenoyloxymethyl)-5-flourouracil] | less toxic than 5-FU | equal to or better than the function of 5-FU | 18 | 27 | 40 | 36 | 19 | 710 | 120 | > 500 | – | – | – | – | – | – |
